Blank lines part the entries; values can stand above or below the compound they belong to.
What was measured:
patients = details: topical 0.5% HP and UVA three times a week; first week of treatment; two patients; cited from earlier work
[1] = tested on: human males with type II or III Vertex alopecia (AGA); assay: Stimulation of hair growth in human subjects with AGA (single topical PDT, terminal hair counts); type: in vivo; details: 0.2% w/w ointment, 50 and 75 J/cm^2; 10 subjects; during and after treatment
Method: A total of 10 subjects were treated. All subjects were human males over 18 years of age and had type II or III Vertex alopecia, rated according to the modified Hamilton-Norwood scale. All subjects received a single application of topical QLT0074 ointment 0.2% weight in weight (w/w) to two of three circular test sites on the vertex area of the scalp. The amount of ointment applied to each test site was approximately 224 mg (about 0.44 mg of photosensitizer per test site). After 2 hours the excess drug was removed and red light (LED's—690 nm) was administered to two of the three sites. The other test site served as a control with no drug or light administration.
Two light dose cohorts (50 and 75 J/cm^2) were investigated with each cohort having 5 subjects.
Safety was assessed by monitoring all adverse events during and after the treatment.
The efficacy was assessed by hair counts 3 months after the treatment and compared to baseline counts.

[2] = tested on: shaved female Balb/c mice; assay: Optimization of drug concentration, irradiation dose and light intensity on hair regrowth in shaved mice, topical QLT 0074; type: in vivo; details: for hair regrowth at the treatment site: 0.5% ointment
Method: A study was performed to assess the effect of drug concentration (0.005, 0.05, or 0.5% QLT 0074 ointment), light dose (50, 100 or 150 J/cm^2 red light) and light intensity 50 or 200 mW/cm) on hair regrowth in shaved female Balb/c mice. Mice received QLT 0074 ointment applied to the skin for 30 minutes, followed by a 15-minute treatment with placebo ointment and exposure to red light (688 nm). One group received no QLT 0074 ointment, only the placebo ointment and light exposure. Preparation of ointments and treatment procedure was as outlined in Example 2, except that different amounts of QLT 0074 were added.
Ointments were prepared as in Example 2, except that different amounts of QLT 0074 (on a weight/weight basis) were incorporated into the ointments. The treatment procedure was as outlined in Example 2.

shaved Balb/C mice = assay: PDT-induced stimulation of hair growth using topically-applied photosensitizer in shaved Balb/c mice; type: in vivo
Method: To prepare QLT 0074-containing ointment, QLT 0074 photosensitizer was dissolved in glacial acetic acid to solubilize it. The solution was then frozen in a dry ice/isopropanol bath and the acetic acid was removed by lyophilization. The resultant material was a fine fluffy powder. […] The ointment base was prepared by first warming polyethylene glycol 200 (PEG 200) to 80-90° C. with stirring. Polyethylene glycol 3350 (PEG 3.35 K) was then added with stirring, followed by oleyl alcohol, and then diethylene glycol monoethyl ether. Stirring was continued until the solution was clear. The ointment base was cooled to approximately 50° C., and the QLT 0074 was added with stirring. Stirring was continued as the mixture cooled, until a homogenous paste was achieved. […]
Female Balb/C mice (8-14 weeks old) were supplied by Charles River Canada (St. Constance, Quebec). […] Mice were randomly assigned to PDT treatment and controlled groups, and were monitored for pain or distress.
Eighteen mice were shaved to remove hair from the back and both flanks. […] QLT 0074-containing ointment was applied to a square spot on the left side of each of mice 1-9 using a square template, with the same quantity of ointment applied to each spot. […]

[3] = tested on: C3H/HeJ female mice exhibiting hair loss; assay: Stimulation of hair growth in a mouse model of alopecia areata (topical PDT); type: in vivo; details: 0.2% (w/w) ointment
Source text: A disease closely resembling human alopecia areata has been observed in aging (over 6-month old) C3H/HeJ mice (see Sundberg, J. P et al, Alopecia Areata in Aging C3H/HeJ Mice, Journal of Investigative Dermatology 102(6): 847-856 [1994[). […] All other areas outside of the treatment site were left untreated.
Following this treatment, all 3 mice received a dose of 50 J/cm^2 688 nm light delivered at a rate of 50 mw/cm^2 in the 1.5 square area. Mice were monitored for skin photosensitivity reactions on Days 1 and 3 after light exposure and observed for hair re-growth for up to 19 days post-treatment.

alopecia areata patients = details: 2% khellin and UVA, cited from earlier work

SMILES: CC1=C(CCC(=O)O)c2cc3[nH]c(cc4nc(cc5[nH]c(cc1n2)c(C)c5C(C)O)C(C)=C4C(C)O)c(C)c3CCC(=O)O (centres unmarked) [hematoporphyrin, Hematoporphyrin]
skin reactions in treated sites (patients): significant erythema and mild scaling followed by hyperpigmentation

skin reactions following treatment ([2]; some treatments, typically highest drug and light dose combinations): Mild skin reactions were evident
SMILES: C=Cc1c(C)c2cc3nc(cc4[nH]c(cc5nc(cc1[nH]2)C(C)=C5CCC(=O)OCCO)c(CCC(=O)OCCO)c4C)[C@@]1(C)C3=CC=C(C(=O)OC)[C@H]1C(=O)OC [QLT 0074]
serious adverse events [1]: No serious adverse events were reported | hair growth ([2]; 0.05% ointment, any light dose): did not exhibit hair growth | hair regrowth at the treatment site ([2]; 50, 100 or 150 J/cm^2 at 200 mW/cm^2): Hair regrowth at the treatment site was observed | hair regrowth at the treatment site ([2]; 50 or 100 J/cm^2 red light at 50 mW/cm^2): Hair regrowth at the treatment site was also observed | moderate or severe skin photosensitivity reactions ([2]; all drug and light dose combinations): no moderate or severe skin photosensitivity reactions were observed | number of animals with hair regrowth at the treatment site ([2]; of three animals, 0.005% ointment, 150 J/cm^2 at 200 mW/cm^2): one | hair re-growth, representative mouse (FIG. 4) (shaved Balb/C mice; 17 days after PDT treatment): Hair re-growth was observed | number of mice that developed hair growth on the treated area by day 17 (shaved Balb/C mice; out of nine mice, 0.5% w/w ointment 30 min, 688 nm 50 J/cm^2 at 200 mW/cm^2): five | skin photosensitivity reactions ([3]; 50 J/cm^2 688 nm at 50 mw/cm^2, Days 1 and 3 after light exposure): no skin photosensitivity reactions were observed | number of mice with increased amount of hair in the treatment area ([3]; of the 3 mice treated, day 7 post-treatment, 50 J/cm^2 688 nm): 2

SMILES: COc1c2occc2c(OC)c2c(=O)cc(C)oc12 [khellin]
phototoxicity (alopecia areata patients): did not cause phototoxicity | number of patients treated successfully (alopecia areata patients; of the 10 patients tested): 5

Source: patent publication US7264629B2, “Photodynamic therapy for the treatment of hair loss” (QLT, Inc., priority 2001, dated 2007)
